According to ChEMBL document CHEMBL5107966, “Cascade synthetic strategies opening access to medicinal-relevant aliphatic 3- and 4-membered N-heterocyclic scaffolds” (Eur J Med Chem, 2022):
Values after ≈ are worked out from the molar mass of the structure shown.

Experiments:
[1] = test system: Staphylococcus aureus; assay: Antimicrobial activity against Staphylococcus aureus incubated for 18 to 24 hrs; assay type: functional; conditions: time 18-24 hrs
[2] = test system: Enterococcus faecium; assay: Antimicrobial activity against Enterococcus faecium incubated for 18 to 24 hrs; assay type: functional; conditions: time 18-24 hrs
[3] = test system: Pseudomonas aeruginosa; assay: Antimicrobial activity against Pseudomonas aeruginosa incubated for 18 to 24 hrs; assay type: functional; conditions: time 18-24 hrs
[4] = test system: Enterobacter cloacae; assay: Antimicrobial activity against Enterobacter cloacae incubated for 18 to 24 hrs; assay type: functional; conditions: time 18-24 hrs
[5] = test system: RAW264.7; assay: Inhibition of NO release in mouse RAW264.7 incubated for 15 mins by fluoroscence-luminescence reader infinite M200 Pro analysis; assay type: functional, cell-based; conditions: RAW264.7, 0.25 h
[6] = test system: RAW264.7; assay: Cytotoxicity against mouse RAW264.7 by WST-1 vital dye reagent method; assay type: functional, cell-based
[7] = test system: HCT-116; assay: cells; conditions: Homo sapiens, HCT-116, 72 h
[8] = test system: HepG2; assay: Antiproliferative activity against human HepG2 cells assessed as reduction in cell viability incubated for 72 hrs by CCK-8 assay; assay type: functional, cell-based; conditions: HepG2, 72 h
[9] = test system: U-251; assay: Antiproliferative activity against human U-251 cells assessed as reduction in cell viability incubated for 72 hrs by CCK-8 assay; assay type: functional, cell-based; conditions: U-251, 72 h
[10] = test system: A-431; assay: Antiproliferative activity against human A-431 cells assessed as reduction in cell viability incubated for 72 hrs by CCK-8 assay; assay type: functional, cell-based; conditions: A-431, 72 h
[11] = test system: HCT-116; assay: Cytotoxicity against human HCT-116 cells assessed as cell viability incubated for 24 hrs by MTT assay; assay type: functional, cell-based; conditions: HCT-116, 24 h
[12] = test system: A549; assay: Cytotoxicity against human A549 cells
[13] = test system: HeLa; assay: Cytotoxicity against human HeLa cells
[14] = test system: A2780; assay: Cytotoxicity against human A2780 cells; assay type: functional, cell-based
[15] = test system: HCT-116; assay: Cytotoxicity against human HCT-116 cells; assay type: functional, cell-based
[16] = test system: Pseudomonas aeruginosa; assay: Antimicrobial activity against Pseudomonas aeruginosa MCCB 0035; assay type: functional
[17] = test system: Aspergillus fumigatus; assay: Antimicrobial activity against Aspergillus fumigatus NCIM 2081; assay type: functional
[18] = test system: Staphylococcus aureus; assay: Antimicrobial activity against Staphylococcus aureus ATCC 29213; assay type: functional
[19] = test system: Aspergillus niger; assay: Antimicrobial activity against Aspergillus niger […]; assay type: functional
[20] = test system: Candida albicans; assay: Antimicrobial activity against Candida albicans NCIM 2087; assay type: functional
[21] = test system: Escherichia coli; assay: Antimicrobial activity against Escherichia coli ATCC 8739; assay type: functional

`O=C(O)C1N=C1c1ccccc1` (configuration not stated) showed an MIC [1] of 9 µg/mL (≈ 55.8 µM), an MIC [2] of 9 µg/mL (≈ 55.8 µM) and an MIC [3] of 9 µg/mL (≈ 55.8 µM). For the same compound, the MIC [4] was 9 µg/mL (≈ 55.8 µM).

For `O=C1[C@@H](Oc2ccc(Cl)cc2Cl)[C@@H](c2ccc([N+](=O)[O-])cc2)N1CCCN1CCOCC1`, the IC50 [5] was 4.14 µM and the IC50 [6] was 291 µM.

With `COc1cc(-c2cc(C3CN(c4cccc(C#N)n4)C3)ccc2OC)ccn1` the EC50 [7] was 15 µM, the EC50 [8] was 0.46 µM and the EC50 [9] was 1.2 µM. The EC50 [10] was 0.7 µM.

For `CCOP(=O)(O)C1CN1C(C)c1ccc2ccccc2c1` (configuration not stated), the IC50 [11] was 12.3 µM.

In the case of `Cc1ccc(C(OC(=O)C2N=C2c2ccccc2Br)C(=O)NC(C)(C)C)cc1` (configuration not stated), the MIC [1] is reported as 16 µg/mL (≈ 36.1 µM), the MIC [2] is reported as 16 µg/mL (≈ 36.1 µM) and the MIC [3] is reported as 150 µg/mL (≈ 338 µM). The MIC [4] was 75 µg/mL (≈ 169 µM).

With `CCOP(=O)(O)C1CN1Cc1ccccc1` (configuration not stated) the IC50 [11] was 7.79 µM.

For `Nc1cccc([C@@H]2[C@H](Oc3ccc4ccccc4c3)C(=O)N2CCCN2CCOCC2)c1`, the IC50 [5] was 5.73 µM and the IC50 [6] was > 500 µM.

Work on `CCOP(=O)(O)C1CN1C1CCCCC1` (configuration not stated) yielded an IC50 [11] of 16.1 µM.

Work on `COc1ccc(C2CN(c3cccc(C#N)n3)C2)cc1-c1ccnc(N)c1` yielded an EC50 [7] of 0.36 µM, an EC50 [8] of 5.66 µM and an EC50 [9] of 0.03 µM.

With `O=C1[C@@H](Oc2ccc(Cl)cc2)[C@@H](c2ccccc2[N+](=O)[O-])N1N1CCOCC1` the IC50 [5] was 7.92 µM and the IC50 [6] was > 500 µM.

With `COc1ccc(C2NC2c2cc(OC)c(OC)c(OC)c2)cc1` (configuration not stated) the IC50 [12] was 8.74 µM, the IC50 [13] was 4.93 µM and the IC50 [14] was 4.68 µM. For the same compound, the IC50 [15] was 5.44 µM.

`Cc1ccc(S(=O)(=O)N2C(=O)C(Cl)[C@H]2c2ccc(F)cc2)cc1` (some centres not stated) showed an MIC [16] of 4 µg/mL (≈ 11.3 µM), an MIC [17] of 2 µg/mL (≈ 5.65 µM) and an MIC [18] of 1 µg/mL (≈ 2.83 µM). The MIC [19] was 8 µg/mL (≈ 22.6 µM), the MIC [20] was 2 µg/mL (≈ 5.65 µM) and the MIC [21] was 0.5 µg/mL (≈ 1.41 µM).

Compound `Cc1ccc(S(=O)(=O)N2C(=O)C(Cl)[C@H]2c2ccccc2F)cc1` (some centres not stated) has an MIC [16] of 32 µg/mL (≈ 90.4 µM), an MIC [17] of 4 µg/mL (≈ 11.3 µM) and an MIC [18] of 4 µg/mL (≈ 11.3 µM). The MIC [19] was 16 µg/mL (≈ 45.2 µM), the MIC [20] was 16 µg/mL (≈ 45.2 µM) and the MIC [21] was 4 µg/mL (≈ 11.3 µM).

In the case of `Cc1ccc(S(=O)(=O)N2C(=O)C(Cl)[C@H]2c2cccc(F)c2)cc1` (some centres not stated), the MIC [16] is reported as 16 µg/mL (≈ 45.2 µM), the MIC [17] is reported as 16 µg/mL (≈ 45.2 µM) and the MIC [18] is reported as 8 µg/mL (≈ 22.6 µM). The MIC [19] was 16 µg/mL (≈ 45.2 µM), the MIC [20] was 8 µg/mL (≈ 22.6 µM) and the MIC [21] was 2 µg/mL (≈ 5.65 µM).

With `CC1(C)S[C@@H]2[C@H](NC(=O)[C@H](N)c3ccccc3)C(=O)N2[C@H]1C(=O)O` [AMPICILLIN] the MIC [16] was 4 µg/mL (≈ 11.4 µM), the MIC [18] was 2 µg/mL (≈ 5.72 µM) and the MIC [21] was 1 µg/mL (≈ 2.86 µM).

Work on `CC[C@@]1(O)C(=O)OCc2c1cc1n(c2=O)Cc2cc3ccccc3nc2-1` [CAMPTOTHECIN] yielded an IC50 [11] of 0.00201 µM.

`Clc1ccccc1C(c1ccccc1)(c1ccccc1)n1ccnc1` [CLOTRIMAZOLE] showed an MIC [17] of 1 µg/mL (≈ 2.9 µM), an MIC [19] of 16 µg/mL (≈ 46.4 µM) and an MIC [20] of 4 µg/mL (≈ 11.6 µM).

In the case of `COc1cccc2c1C(=O)c1c(O)c3c(c(O)c1C2=O)C[C@@](O)(C(=O)CO)C[C@@H]3O[C@H]1C[C@H](N)[C@H](O)[C@H](C)O1` [DOXORUBICIN], the EC50 [7] is reported as 0.16 µM, the EC50 [8] is reported as 0.67 µM and the EC50 [9] is reported as 0.07 µM. It also gave an EC50 [10] of 0.7 µM.

`COc1cc([C@@H]2c3cc4c(cc3[C@@H](O[C@@H]3O[C@@H]5CO[C@@H](C)O[C@H]5[C@H](O)[C@H]3O)[C@H]3COC(=O)[C@H]23)OCO4)cc(OC)c1O` [ETOPOSIDE] showed an IC50 [11] of 26.1 µM.

Work on `Cc1cc(NS(=O)(=O)c2ccc(N)cc2)no1` [SULFAMETHOXAZOLE] yielded an MIC [1] of 16 µg/mL (≈ 63.2 µM), an MIC [2] of 4 µg/mL (≈ 15.8 µM) and an MIC [3] of 8 µg/mL (≈ 31.6 µM). It also gave an MIC [4] of 8 µg/mL (≈ 31.6 µM).
